Experimental data as given in patent US7900639B2, “Reconstituted tobaccos containing additive materials” (R. J. Reynolds Tobacco Company, priority 2003, dated 2011).

Tests used:
bacteria = test: Extracts tested for bacterial growth; conditions: test extract versus control extract without additive
[1] = room temperature
Procedure: The tobacco blend is extracted batch wise at about 130° F. using about 10 to about 15 parts tap water for each part tobacco material. Aqueous tobacco extract is separated from the water insoluble pulp using a centrifuge. The aqueous extract so provided has a soluble solids content of about 5%. The resulting extract is concentrated to a soluble solids content of about 22% to about 28% using a wiped film evaporator. The prepared extract is divided into two portions. To one portion, d-, l-alpha tocopherol is contacted with the resulting mixture (the test extract). […] In the other portion, no d-, l-alpha tocopherol is added, and as such a control extract is provided.
The concentrated liquid tobacco extracts with and without added d-, l-alpha tocopherol mixture are vigorously mixed or homogenized and allowed to set at room temperature conditions for five days.

## Cc1c(C)c2c(c(C)c1O)CCC(C)(CCCC(C)CCCC(C)CCCC(C)C)O2 (stereo not drawn) [d-, l-alpha tocopherol]
bacteria
  bacteria activity in the extract: significantly reduce
[1]; approximately 4% d-, l-alpha tocopherol on dried solids, five days, control began to ferment within two days
  condition of aqueous tobacco extract containing the additive on storage: remained unchanged
[1]; emulsified in test extract, five day test period
  separation of the additive in the tobacco extract: no separation
